{"source": "patent US6737383B1", "about": "“Herbicidal oxadiazolidines” (priority 1999, dated 2004)", "key": {"rape": {"test_system": "rape", "assay": "Test B pre/postemergence rape", "format": "in vivo, Brassica napus", "method_in_brief": "(§1)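 Response is a visual 0-to-10 score relative to untreated plants, where 0 means no effect and 10 means complete control, taken twelve to sixteen days after application. Treatments went onto soil at planting and onto foliage of 1- to 4-leaf plants, using a surfactant-containing non-phytotoxic solvent.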"}, "pigweed": {"test_system": "pigweed", "assay": "Test B pre/postemergence pigweed", "format": "in vivo, Amaranthus retroflexus", "method_in_brief": "as §1"}, "purple nutsedge": {"test_system": "purple nutsedge", "assay": "Test B pre/postemergence purple nutsedge", "format": "in vivo, Cyperus rotundus", "method_in_brief": "as §1"}, "blackgrass": {"test_system": "blackgrass", "assay": "Test B pre/postemergence blackgrass", "format": "in vivo, Alopecurus myosuroides", "method_in_brief": "as §1"}, "rice": {"test_system": "rice", "assay": "Test B flood test rice", "format": "in vivo, Oryza sativa", "method_in_brief": "(§2)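 Plants were grown to the 2-leaf stage before treatment with test chemical, then held in a greenhouse for twelve to sixteen days. Injury was visually rated against untreated controls on a 0–10 scale, where 0 is no effect and 10 is complete control.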"}, "morningglory": {"test_system": "morningglory", "assay": "Test B pre/postemergence morningglory", "format": "in vivo, Ipomoea hederacea", "method_in_brief": "as §1"}, "soybean": {"test_system": "soybean", "assay": "Test B pre/postemergence soybean", "format": "in vivo, Glycine max", "method_in_brief": "as §1"}, "surinam grass": {"test_system": "surinam grass", "assay": "Test B pre/postemergence surinam grass", "format": "in vivo, Brachiaria decumbens", "method_in_brief": "as §1"}, "cocklebur": {"test_system": "cocklebur", "assay": "Test B pre/postemergence cocklebur", "format": "in vivo, Xanthium strumarium", "method_in_brief": "as §1"}, "corn": {"test_system": "corn", "assay": "Test B pre/postemergence corn", "format": "in vivo, Zea mays", "method_in_brief": "as §1"}, "wild oat": {"test_system": "wild oat", "assay": "Test B pre/postemergence wild oat", "format": "in vivo, Avena fatua", "method_in_brief": "as §1"}, "bamyardgrass": {"test_system": "bamyardgrass", "assay": "Test B flood test barnyardgrass", "format": "in vivo, Echinochloa crus-galli", "method_in_brief": "as §2"}, "velvetleaf": {"test_system": "velvetleaf", "assay": "Test B pre/postemergence velvetleaf", "format": "in vivo, Abutilon theophrasti", "method_in_brief": "as §1"}, "sugar beet": {"test_system": "sugar beet", "assay": "Test B pre/postemergence sugar beet", "format": "in vivo, Beta vulgaris", "method_in_brief": "as §1"}, "smallflower flatsedge": {"test_system": "smallflower flatsedge", "assay": "Test B flood test smallflower flatsedge", "format": "in vivo, Cyperus difformis", "method_in_brief": "as §2"}, "bedstraw": {"test_system": "bedstraw", "assay": "Test B pre/postemergence bedstraw", "format": "in vivo, Galium aparine", "method_in_brief": "as §1"}, "[1]": {"settings": "Postemergence, Rate 62 g/ha, scale 0 to 10, 0 is no effect, 10 is complete control"}, "[2]": {"settings": "Postemergence, Rate 250 g/ha, scale 0 to 10, 0 no effect, 10 complete control"}, "[3]": {"settings": "Preemergence, Rate 62 g/ha, scale 0 to 10, 0 is no effect, 10 is complete control"}, "[4]": {"settings": "Preemergence, Rate 125 g/ha, scale 0 to 10 (0 no effect, 10 complete control)"}, "[5]": {"settings": "Preemergence, Rate 250 g/ha, scale of 0 to 10 where 0 is no effect and 10 is complete control"}, "[6]": {"settings": "Preemergence, Rate 500 g/ha, scale 0 (no effect) to 10 (complete control)"}, "[7]": {"settings": "Rate 125 g/ha, Postemergence, scale 0 to 10, 0 no effect, 10 complete control"}, "[8]": {"settings": "Rate 500 g/ha, Postemergence, 0 to 10 scale (0 no effect, 10 complete control)"}, "[9]": {"settings": "Rate 125 g/ha, Postemergence section (flood test species), scale 0 to 10, 0 no effect, 10 complete control"}, "[10]": {"settings": "Rate 500 g/ha, Postemergence section of Table B, 0 to 10 scale (0 no effect, 10 complete control)"}, "[11]": {"settings": "flood test, listed under Postemergence, Rate 250 g/ha, scale 0 to 10, 0 no effect, 10 complete control"}}, "data": [{"molecule": "Cc1ccccc1-n1c(=O)on(C(=O)N(c2ccc(Cl)cc2)C(C)C)c1=O", "note": "[Compound 41]", "values": [{"measurement": "Rape plant response rating", "setting": "rape; [1]", "value": 0}, {"measurement": "Rape plant response rating", "setting": "rape; [2]", "value": 0}, {"measurement": "Plant response rating, Rape", "setting": "rape; [3]", "value": 0}, {"measurement": "Plant response rating, Rape", "setting": "rape; [4]", "value": 0}, {"measurement": "Plant response rating, Rape", "setting": "rape; [5]", "value": 0}, {"measurement": "Rape plant response rating", "setting": "rape; [6]", "value": 0}, {"measurement": "Rape plant response rating", "setting": "rape; [7]", "value": 0}, {"measurement": "Rape plant response rating", "setting": "rape; [8]", "value": 0}, {"measurement": "Redroot pigweed plant response rating", "setting": "pigweed; [1]", "value": 0}, {"measurement": "Redroot pigweed plant response rating", "setting": "pigweed; [2]", "value": 3}, {"measurement": "Plant response rating, Redroot pigweed", "setting": "pigweed; [3]", "value": 0}, {"measurement": "Plant response rating, Redroot pigweed", "setting": "pigweed; [4]", "value": 1}, {"measurement": "Plant response rating, Redroot pigweed", "setting": "pigweed; [5]", "value": 1}, {"measurement": "Redroot pigweed plant response rating", "setting": "pigweed; [6]", "value": 7}, {"measurement": "Redroot pigweed plant response rating", "setting": "pigweed; [7]", "value": 0}, {"measurement": "Redroot pigweed plant response rating", "setting": "pigweed; [8]", "value": 5}, {"measurement": "Nutsedge plant response rating", "setting": "purple nutsedge; [1]", "value": 0}, {"measurement": "Nutsedge plant response rating", "setting": "purple nutsedge; [2]", "value": 0}, {"measurement": "Plant response rating, Nutsedge", "setting": "purple nutsedge; [3]", "value": 0}, {"measurement": "Plant response rating, Nutsedge", "setting": "purple nutsedge; [4]", "value": 0}, {"measurement": "Plant response rating, Nutsedge", "setting": "purple nutsedge; [5]", "value": 0}, {"measurement": "Nutsedge plant response rating", "setting": "purple nutsedge; [6]", "value": 0}, {"measurement": "Nutsedge plant response rating", "setting": "purple nutsedge; [7]", "value": 0}, {"measurement": "Nutsedge plant response rating", "setting": "purple nutsedge; [8]", "value": 0}, {"measurement": "Blackgrass plant response rating", "setting": "blackgrass; [1]", "value": 0}, {"measurement": "Blackgrass plant response rating", "setting": "blackgrass; [2]", "value": 3}, {"measurement": "Plant response rating, Blackgrass", "setting": "blackgrass; [3]", "value": 0}, {"measurement": "Plant response rating, Blackgrass", "setting": "blackgrass; [4]", "value": 0}, {"measurement": "Plant response rating, Blackgrass", "setting": "blackgrass; [5]", "value": 2}, {"measurement": "Blackgrass plant response rating", "setting": "blackgrass; [6]", "value": 4}, {"measurement": "Blackgrass plant response rating", "setting": "blackgrass; [7]", "value": 0}, {"measurement": "Blackgrass plant response rating", "setting": "blackgrass; [8]", "value": 4}, {"measurement": "Rice plant response rating", "setting": "rice; [1]", "value": 0}, {"measurement": "Rice plant response rating", "setting": "rice; [9]", "value": 0}, {"measurement": "Rice plant response rating", "setting": "rice; [10]", "value": 0}, {"measurement": "Rice plant response rating", "setting": "rice; [11]", "value": 0}, {"measurement": "Morningglory plant response rating", "setting": "morningglory; [1]", "value": 1}, {"measurement": "Morningglory plant response rating", "setting": "morningglory; [2]", "value": 2}, {"measurement": "Plant response rating, Morningglory", "setting": "morningglory; [3]", "value": 0}, {"measurement": "Plant response rating, Morningglory", "setting": "morningglory; [4]", "value": 0}, {"measurement": "Plant response rating, Morningglory", "setting": "morningglory; [5]", "value": 0}, {"measurement": "Morningglory plant response rating", "setting": "morningglory; [6]", "value": 0}, {"measurement": "Morningglory plant response rating", "setting": "morningglory; [7]", "value": 2}, {"measurement": "Morningglory plant response rating", "setting": "morningglory; [8]", "value": 6}, {"measurement": "Soybean plant response rating", "setting": "soybean; [1]", "value": 3}, {"measurement": "Soybean plant response rating", "setting": "soybean; [2]", "value": 4}, {"measurement": "Plant response rating, Soybean", "setting": "soybean; [3]", "value": 0}, {"measurement": "Plant response rating, Soybean", "setting": "soybean; [4]", "value": 0}, {"measurement": "Plant response rating, Soybean", "setting": "soybean; [5]", "value": 0}, {"measurement": "Soybean plant response rating", "setting": "soybean; [6]", "value": 0}, {"measurement": "Soybean plant response rating", "setting": "soybean; [7]", "value": 3}, {"measurement": "B. signalgrass plant response rating", "setting": "surinam grass; [1]", "value": 0}, {"measurement": "B. signalgrass plant response rating", "setting": "surinam grass; [2]", "value": 0}, {"measurement": "Plant response rating, B. signalgrass", "setting": "surinam grass; [3]", "value": 0}, {"measurement": "Plant response rating, B. signalgrass", "setting": "surinam grass; [4]", "value": 0}, {"measurement": "Plant response rating, B. signalgrass", "setting": "surinam grass; [5]", "value": 4}, {"measurement": "B. signalgrass plant response rating", "setting": "surinam grass; [6]", "value": 7}, {"measurement": "B. signalgrass plant response rating", "setting": "surinam grass; [7]", "value": 0}, {"measurement": "B. signalgrass plant response rating", "setting": "surinam grass; [8]", "value": 0}, {"measurement": "Cocklebur plant response rating", "setting": "cocklebur; [1]", "value": 0}, {"measurement": "Cocklebur plant response rating", "setting": "cocklebur; [2]", "value": 1}, {"measurement": "Plant response rating, Cocklebur", "setting": "cocklebur; [3]", "value": 0}, {"measurement": "Plant response rating, Cocklebur", "setting": "cocklebur; [4]", "value": 0}, {"measurement": "Plant response rating, Cocklebur", "setting": "cocklebur; [5]", "value": 0}, {"measurement": "Cocklebur plant response rating", "setting": "cocklebur; [6]", "value": 0}, {"measurement": "Cocklebur plant response rating", "setting": "cocklebur; [7]", "value": 0}, {"measurement": "Cocklebur plant response rating", "setting": "cocklebur; [8]", "value": 3}, {"measurement": "Corn plant response rating", "setting": "corn; [1]", "value": 0}, {"measurement": "Corn plant response rating", "setting": "corn; [2]", "value": 0}, {"measurement": "Plant response rating, Corn", "setting": "corn; [3]", "value": 0}, {"measurement": "Plant response rating, Corn", "setting": "corn; [4]", "value": 0}, {"measurement": "Plant response rating, Corn", "setting": "corn; [5]", "value": 0}, {"measurement": "Corn plant response rating", "setting": "corn; [6]", "value": 0}, {"measurement": "Corn plant response rating", "setting": "corn; [7]", "value": 0}, {"measurement": "Corn plant response rating", "setting": "corn; [8]", "value": 0}, {"measurement": "Wild oats plant response rating", "setting": "wild oat; [1]", "value": 0}, {"measurement": "Wild oats plant response rating", "setting": "wild oat; [2]", "value": 0}, {"measurement": "Plant response rating, Wild oats", "setting": "wild oat; [4]", "value": 0}, {"measurement": "Plant response rating, Wild oats", "setting": "wild oat; [5]", "value": 0}, {"measurement": "Wild oats plant response rating", "setting": "wild oat; [6]", "value": 4}, {"measurement": "Wild oats plant response rating", "setting": "wild oat; [7]", "value": 0}, {"measurement": "Barnyardgrass plant response rating", "setting": "bamyardgrass; [1]", "value": 0}, {"measurement": "Barnyardgrass plant response rating", "setting": "bamyardgrass; [9]", "value": 0}, {"measurement": "Barnyardgrass plant response rating", "setting": "bamyardgrass; [10]", "value": 0}, {"measurement": "Barnyardgrass plant response rating", "setting": "bamyardgrass; [11]", "value": 0}, {"measurement": "Velvetleaf plant response rating", "setting": "velvetleaf; [1]", "value": 0}, {"measurement": "Velvetleaf plant response rating", "setting": "velvetleaf; [2]", "value": 0}, {"measurement": "Plant response rating, Velvetleaf", "setting": "velvetleaf; [3]", "value": 0}, {"measurement": "Plant response rating, Velvetleaf", "setting": "velvetleaf; [4]", "value": 0}, {"measurement": "Plant response rating, Velvetleaf", "setting": "velvetleaf; [5]", "value": 0}, {"measurement": "Velvetleaf plant response rating", "setting": "velvetleaf; [6]", "value": 0}, {"measurement": "Velvetleaf plant response rating", "setting": "velvetleaf; [7]", "value": 0}, {"measurement": "Sugarbeets plant response rating", "setting": "sugar beet; [1]", "value": 0}, {"measurement": "Sugarbeets plant response rating", "setting": "sugar beet; [2]", "value": 0}, {"measurement": "Plant response rating, Sugarbeets", "setting": "sugar beet; [3]", "value": 0}, {"measurement": "Plant response rating, Sugarbeets", "setting": "sugar beet; [4]", "value": 0}, {"measurement": "Plant response rating, Sugarbeets", "setting": "sugar beet; [5]", "value": 0}, {"measurement": "Sugarbeets plant response rating", "setting": "sugar beet; [6]", "value": 0}, {"measurement": "Sugarbeets plant response rating", "setting": "sugar beet; [7]", "value": 0}, {"measurement": "S. Flatsedge plant response rating", "setting": "smallflower flatsedge; [1]", "value": 0}, {"measurement": "S. Flatsedge plant response rating", "setting": "smallflower flatsedge; [9]", "value": 0}, {"measurement": "S. Flatsedge plant response rating", "setting": "smallflower flatsedge; [11]", "value": 0}, {"measurement": "Bedstraw plant response rating", "setting": "bedstraw; [1]", "value": 0}, {"measurement": "Plant response rating, Bedstraw", "setting": "bedstraw; [3]", "value": 0}, {"measurement": "Plant response rating, Bedstraw", "setting": "bedstraw; [4]", "value": 0}, {"measurement": "Plant response rating, Bedstraw", "setting": "bedstraw; [5]", "value": 0}, {"measurement": "Bedstraw plant response rating", "setting": "bedstraw; [6]", "value": 0}]}]}
